Broadly, the inhibition is the percentage by which the read-out fell short of the control.

The values below come from patent EP1888615B1, “17 -HSD1 AND STS INHIBITORS” (Abbott Products GmbH, priority 2005, dated 2006).

Each structure is given as a SMILES string.

In the assay the target is T1, recombinant human 17β-hydroxysteroid dehydrogenase type 1 (Homo sapiens, UniProt P14061).
T1 construct: made in house; host or cells: Sf9 insect cells (baculovirus, Bac to Bac Expression System)
T1 sequence (P14061 1-328): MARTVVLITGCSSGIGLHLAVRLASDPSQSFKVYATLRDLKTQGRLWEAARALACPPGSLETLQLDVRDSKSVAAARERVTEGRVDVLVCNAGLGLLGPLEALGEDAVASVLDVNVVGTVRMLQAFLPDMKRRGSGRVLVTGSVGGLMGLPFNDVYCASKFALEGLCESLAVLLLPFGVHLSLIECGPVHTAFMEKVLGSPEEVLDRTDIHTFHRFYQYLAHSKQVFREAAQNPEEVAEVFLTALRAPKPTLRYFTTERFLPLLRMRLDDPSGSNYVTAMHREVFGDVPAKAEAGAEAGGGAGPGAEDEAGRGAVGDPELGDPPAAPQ
Nature of the assay: Inhibition of recombinant human 17β-hydroxysteroid dehydrogenase type 1 (conversion of 3H-estrone to estradiol, HPLC radiodetection). Type of assay: biochemical. The settings on record: 30 nM 3H-estrone, 1 mM NADPH, 30 min at RT; for inhibition: inhibitor 1 µm, read-out: Inhibition of rec 17β-HSD1. As for the experimental part:
17β-HSD1 purification: Recombinant baculovirus was generated by the "Bac to Bac Expression System" (Invitrogen). Recombinant bacmid was transfected to Sf9 insect cells using "Cellfectin Reagent" (Invitrogen). 60h later cells were harvested; the microsomal fraction was isolated as described by Puranen et al. (1994). Aliquots were stored frozen until determination of enzymatic activity.
Assay - Inhibition of recombinant human 17β-hydroxysteroid dehydrogenase type 1: Recombinant protein (0.1µg/ml) was incubated in 20 mM KH2PO4 pH 7.4 with 30 nM 3H-estrone and 1 mM NADPH for 30 min at RT, in the presence of potential inhibitors at concentrations of 1 µM or 0.1 µM. Inhibitor stock solutions were prepared in DMSO. Final concentration of DMSO was adjusted to 1 % in all samples. The enzyme reaction was stopped by addition of 10 % trichloroacetic acid (final concentration). Samples were centrifuged in a microtiter plate at 4000 rpm for 10 min. Supernatants were applied to reverse phase HPLC on a Waters Symmetry C18 column, equipped with a Waters Sentry Guard column. Isocratic HPLC runs were performed at RT at a flow rate of 1 ml/min of acetonitrile:water 48:52 as running solvent. Radioactivity was monitored in the eluate by a Packard Flow Scintillation Analyzer. Total radioactivity for estrone and estradiol were determined in each sample and percent conversion of estrone to estradiol was calculated according to the following formula: % conversion = 100 × ({(cpm estradiol in sample with inhibitor)/[(cpm estrone in sample with inhibitor)+(cpm estradiol in sample with inhibitor)]})/({(cpm estradiol in sample without inhibitor)/[(cpm estrone in sample without inhibitor)+(cpm estradiol in sample without inhibitor)]}). [formula] [formula]
Table 19: Inhibition of 17β-HSD enzyme type I

In the case of `C[C@]12CC[C@@H]3c4ccc(OCc5ccccc5)cc4CC[C@H]3[C@@H]1[C@H](C/C=C/C(=O)N1CCOCC1)c1cnoc12` [161'], the inhibition is 74%.

`CCCc1cc2c(cc1O)CC[C@H]1[C@@H]3[C@H](CCCC(=O)NCc4ccccc4)CC(=O)[C@@]3(C)CC[C@H]21` [Example 2, N-Benzyl-4-(3-hydroxy-17-oxo-2-propyl-estra-1,3,5(10)-trien-15β-yl)-butyramide]: the inhibition turned out to be 74.8%.

Take `COCCc1cc2c(cc1O)CC[C@H]1[C@@H]3[C@H](CCCC(=O)NCc4ccccc4)CC(=O)[C@@]3(C)CC[C@H]21` [Example 3, N-Benzyl-4-(3-hydroxy-2-(2-methoxy-ethyl)-17-oxo-estra-1,3,5(10)-trien-15β-yl)-butyramide]: the inhibition came out at 71.2%.

As to `CCCc1cc2c(cc1O)CC[C@H]1[C@@H]3[C@H](CCCC(=O)N4CCOCC4)CC(=O)[C@@]3(C)CC[C@H]21` [Example 6, 3-Hydroxy-15β-(4-morpholin-4-yl-4-oxo-butyl)-2-propyl-estra-1,3,5(10)-trien-17-one], the inhibition came to 79.3%.

Regarding `CCCc1cc2c(cc1O)CC[C@H]1[C@@H]3[C@H](CCCC(=O)NCc4ccc5c(c4)OCO5)CC(=O)[C@@]3(C)CC[C@H]21` [Example 30], the inhibition was found to be 73.6%.

With `CCCc1cc2c(cc1O)CC[C@H]1[C@@H]3[C@H](CCCC(=O)NCc4cccnc4)CC(=O)[C@@]3(C)CC[C@H]21` [Example 32], the inhibition was found to be 79%.

Turning to `CCCc1cc2c(cc1O)CC[C@H]1[C@@H]3[C@H](CCCC(=O)NCCc4c[nH]c5c(C)cccc45)CC(=O)[C@@]3(C)CC[C@H]21` [Example 34], the inhibition turned out to be 71.9%.

Consider `CCCc1cc2c(cc1O)CC[C@H]1[C@@H]3[C@H](CCCC(=O)N4CCCCC4)CC(=O)[C@@]3(C)CC[C@H]21` [Example 36], for which the inhibition came out at 78.1%.

Regarding `CCCc1cc2c(cc1O)CC[C@H]1[C@@H]3[C@H](CCCC(=O)N(C)Cc4ccccc4)CC(=O)[C@@]3(C)CC[C@H]21` [Example 37], the inhibition came out at 74.7%.

With `CCCc1cc2c(cc1O)CC[C@H]1[C@@H]3[C@H](CCCC(=O)N(C)CCc4ccc(OC)c(OC)c4)CC(=O)[C@@]3(C)CC[C@H]21` [Example 38], the inhibition was 76.7%.

As for `CCCc1cc2c(cc1O)CC[C@H]1[C@@H]3[C@H](CCCC(=O)Nc4ccc5cn[nH]c5c4)CC(=O)[C@@]3(C)CC[C@H]21` [Example 40], the inhibition turned out to be 75.8%.

Take `CCCc1cc2c(cc1O)CC[C@H]1[C@@H]3[C@H](CCCC(=O)NCCOC)CC(=O)[C@@]3(C)CC[C@H]21` [Example 41]: the inhibition was 70.4%.

With `CCCc1cc2c(cc1O)CC[C@H]1[C@@H]3[C@H](CCCC(=O)NCc4ccc(F)cc4F)CC(=O)[C@@]3(C)CC[C@H]21` [Example 42], the inhibition was 71.7%.

On to `CCOc1cc2c(cc1O)CC[C@H]1[C@@H]3[C@@H](CCCC(=O)NC4CCCCC4)CC(=O)[C@@]3(C)CC[C@H]21` [Example 44], for which the inhibition amounted to 75%.

Take `CCOc1cc2c(cc1O)CC[C@H]1[C@@H]3[C@@H](CCCC(=O)NCc4ccc5c(c4)OCO5)CC(=O)[C@@]3(C)CC[C@H]21` [Example 45]: the inhibition came to 75.7%.

On to `CCOc1cc2c(cc1O)CC[C@H]1[C@@H]3[C@@H](CCCC(=O)NCCc4c[nH]c5c(C)cccc45)CC(=O)[C@@]3(C)CC[C@H]21` [Example 52], for which the inhibition worked out at 72.2%.

For the molecule `CCOc1cc2c(cc1O)CC[C@H]1[C@@H]3[C@@H](CCCC(=O)N4CCCCC4)CC(=O)[C@@]3(C)CC[C@H]21` [Example 55], the inhibition came out at 71.9%.

For `CCOc1cc2c(cc1O)CC[C@H]1[C@@H]3[C@@H](CCCC(=O)Nc4ccc5cn[nH]c5c4)CC(=O)[C@@]3(C)CC[C@H]21` [Example 59], the inhibition was 69.7%.

Take `COc1cc2c(cc1O)CC[C@H]1[C@@H]3[C@@H](CCCC(=O)NC4CCCCC4)CC(=O)[C@@]3(C)CC[C@H]21` [Example 67]: the inhibition stood at 73.2%.

For the molecule `COc1cc2c(cc1O)CC[C@H]1[C@@H]3[C@@H](CCCC(=O)NCc4ccccc4)CC(=O)[C@@]3(C)CC[C@H]21` [Example 71], the inhibition was determined as 70.6%.

`COc1cc2c(cc1O)CCC1C2CCC2(C)C(=O)CC(CCCC(=O)N3CCCCC3)C12` (stereo not drawn) [Example 78]: the inhibition stood at 72%. For the setting “inhibitor 100 nM”, the “Inhibition of rec 17β-HSD1” value was determined as 40.6%.

For the molecule `COc1cc2c(cc1O)CC[C@H]1[C@@H]3[C@@H](CCCC(=O)Nc4ccc5cn[nH]c5c4)CC(=O)[C@@]3(C)CC[C@H]21` [Example 83], the inhibition came to 71.6%.

For `C[C@]12CC[C@@H]3c4ccc(O)cc4CC[C@H]3[C@@H]1[C@H](CCCC(=O)N1CCOCC1)CC2(F)F` [Example 90, 4-(17,17-Difluoro-3-hydroxy-estra-1,3,5(10)-trien-15β-yl)-1-morpholin-4-yl-butan-1-one], the inhibition turned out to be 81.6%.

As for `C[C@]12CC[C@@H]3c4ccc(O)cc4CC[C@H]3[C@@H]1[C@@H](CCCC(=O)N1CCOCC1)CC2(F)F` [Example 91, 4-(17,17-Difluoro-3-hydroxy-estra-1,3,5(10)-trien-15a-yl)-1-morpholin-4-yl-butan-1-one], the inhibition is 85%.

Take `Cc1cnc(NC(=O)CC[C@@H]2CC(F)(F)[C@@]3(C)CC[C@@H]4c5ccc(O)cc5CC[C@H]4[C@H]23)s1` [Example 93, 3-(17,17-Difluoro-3-hydroxy-estra-1,3,5(10)-trien-15β-yl)-N-(5-methyl-thiazol-2-yl)-propionamide]: the inhibition is 86.7%.

For `C[C@]12CC[C@@H]3c4ccc(O)cc4CC[C@H]3[C@@H]1[C@@H](CCCC(=O)NC1CCCCC1)CC2(F)F` [Example 102], the inhibition turned out to be 70.6%.

Regarding `C[C@]12CC[C@@H]3c4ccc(O)cc4CC[C@H]3[C@@H]1[C@@H](CCCC(=O)NCc1ccccc1)CC2(F)F` [Example 106], the inhibition is 68%.

Regarding `C[C@]12CC[C@@H]3c4ccc(O)cc4CC[C@H]3[C@@H]1[C@@H](CCCC(=O)NCc1ccc(O)c(O)c1)CC2(F)F` [Example 109], the inhibition came to 70.7%.

For the molecule `Cc1cccc2c(CCNC(=O)CCC[C@H]3CC(F)(F)[C@@]4(C)CC[C@@H]5c6ccc(O)cc6CC[C@H]5[C@H]34)c[nH]c12` [Example 111], the inhibition is 68.3%.

In the case of `C[C@]12CC[C@@H]3c4ccc(O)cc4CC[C@H]3[C@@H]1[C@@H](CCCC(=O)N1CCCCC1)CC2(F)F` [Example 113], the inhibition worked out at 76.9%.

As to `COc1ccc(CCN(C)C(=O)CCC[C@H]2CC(F)(F)[C@@]3(C)CC[C@@H]4c5ccc(O)cc5CC[C@H]4[C@H]23)cc1OC` [Example 116], the inhibition is 82.4%.

Consider `C[C@]12CC[C@@H]3c4ccc(O)cc4CC[C@H]3[C@@H]1[C@H](CCC(=O)NC1CC1)CC2(F)F` [Example 120], for which the inhibition was found to be 85%.

As to `C[C@]12CC[C@@H]3c4ccc(O)cc4CC[C@H]3[C@@H]1[C@H](CCC(=O)NC1CCCCC1)CC2(F)F` [Example 121], the inhibition was 92.5%.

As to `C[C@]12CC[C@@H]3c4ccc(O)cc4CC[C@H]3[C@@H]1[C@H](CCC(=O)NCc1ccc3c(c1)OCO3)CC2(F)F` [Example 122], the inhibition was 77.9%.

On to `C[C@]12CC[C@@H]3c4ccc(O)cc4CC[C@H]3[C@@H]1[C@H](CCC(=O)NCc1ccccc1)CC2(F)F` [Example 125], for which the inhibition amounted to 76.9%.

With `C[C@]12CC[C@@H]3c4ccc(O)cc4CC[C@H]3[C@@H]1[C@H](CCC(=O)NCc1ccc(O)c(O)c1)CC2(F)F` [Example 127], the inhibition stood at 81.3%.

For the molecule `COc1cc(CNC(=O)CC[C@@H]2CC(F)(F)[C@@]3(C)CC[C@@H]4c5ccc(O)cc5CC[C@H]4[C@H]23)cc(OC)c1` [Example 128], the inhibition was determined as 71.7%.

For `Cc1cccc2c(CCNC(=O)CC[C@@H]3CC(F)(F)[C@@]4(C)CC[C@@H]5c6ccc(O)cc6CC[C@H]5[C@H]34)c[nH]c12` [Example 129], the inhibition came out at 76.9%.

`C[C@]12CC[C@@H]3c4ccc(O)cc4CC[C@H]3[C@@H]1[C@H](CCC(=O)N1CCCCC1)CC2(F)F` [Example 131]: the inhibition worked out at 71.9%.

`CCN(CC)C(=O)CC[C@@H]1CC(F)(F)[C@@]2(C)CC[C@@H]3c4ccc(O)cc4CC[C@H]3[C@H]12` [Example 133]: the inhibition is 90.6%.

Take `COc1ccc(CCN(C)C(=O)CC[C@@H]2CC(F)(F)[C@@]3(C)CC[C@@H]4c5ccc(O)cc5CC[C@H]4[C@H]23)cc1OC` [Example 134]: the inhibition turned out to be 88.6%.
